Publication PMC2784226, “Degradation of Host Sphingomyelin Is Essential for Leishmania Virulence” (PLoS Pathogens, 2009)

Target: T1, ScISC1 (Saccharomyces cerevisiae, UniProt P40015)
T1 construct: gene ISC1; full-length ORF expressed in L. major iscl- null mutant; whole cell lysate
Assay: TLC of NBD-ceramide, intact parasites and whole cell lysate
Type: cell-based
Conditions: labelled compound; expressed in iscl- null mutant

T1 sequence (P40015 whole entry): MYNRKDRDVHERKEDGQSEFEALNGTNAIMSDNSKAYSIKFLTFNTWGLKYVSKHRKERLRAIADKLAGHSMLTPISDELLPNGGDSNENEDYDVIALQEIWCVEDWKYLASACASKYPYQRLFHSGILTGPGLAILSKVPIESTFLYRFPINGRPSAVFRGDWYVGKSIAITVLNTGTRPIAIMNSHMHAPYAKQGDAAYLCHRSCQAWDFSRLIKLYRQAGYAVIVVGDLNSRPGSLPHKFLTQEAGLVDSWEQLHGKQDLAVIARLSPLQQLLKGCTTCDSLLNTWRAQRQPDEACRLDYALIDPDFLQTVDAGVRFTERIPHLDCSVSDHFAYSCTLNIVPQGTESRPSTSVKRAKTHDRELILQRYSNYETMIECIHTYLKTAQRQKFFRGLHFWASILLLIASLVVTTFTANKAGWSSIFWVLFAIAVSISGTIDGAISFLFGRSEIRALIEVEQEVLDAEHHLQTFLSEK

**Q.** For `CCCCCCCCCCCCC/C=C/[C@@H](O)[C@H](COP(=O)([O-])OCC[N+](C)(C)C)NC(=O)CCCCCNc1ccc([N+](=O)[O-])c2nonc12` [NBD C6-sphingomyelin, N-[6-[(7-nitro-2-1,3-benzoxadiazol-4-yl)amino]hexanoyl]-sphingosine-1-phosphocholine], which “TLC of NBD-ceramide, intact parasites and whole cell lysate” value is on record?
**A.** The value was “expression of ScISC1 restored the ability to degrade sphingomyelin in iscl^−”.
